Source: publication PMC10755736, “Modulating Liquid–Liquid Phase Separation of Nck Adaptor Protein against Enteropathogenic Escherichia coli Infection” (ACS Central Science, 2023)
Non-standard residues stand in square brackets, D forms with d. Residues, ends and D or L forms follow the SMILES beside them. *: point of attachment. Biotin = O=C1N[C@H]2[C@H](CS[C@H]2CCCCC(=O)*)N1; Benzoyl(4-SO2F) = O=C(c1ccc(S(=O)(=O)F)cc1)*; pY = N[C@@H](Cc1ccc(OP(=O)(O)O)cc1)C(=O)O; Dap = NC[C@H](N)C(=O)O

Columns and labels:
Nck [1] = molecular target: T1, Nck (Homo sapiens, UniProt P16333); experiment: Reaction kinetics of p1 crosslinking with Nck (SDS-PAGE); assay type: binding; settings: 1:1 reaction, p1 5 μM, Nck 5 μM, PBS, 37 °C
T1 construct: GST (followed by PreScission/HRV 3C site) (N, cleaved yes); made in house; host or cells: E. coli BL21(DE3)
Protocol: ether and purified by reverse-phase HPLC on a C18 column using acetonitrile/H2O (with 0.1% TFA) gradient on a reversed-phase C18 column, confirmed by MALDI-TOF MS analysis (Bruker, USA).
Pure peptides were lyophilized.
Crosslinking of Peptides with Nck in vitro […]
After incubation, 5´ loading buffer was added into the solution and heated at 100 °C for 10 min. These samples were then separated by 12% SDS-PAGE gel, which contained 10% glycerol instead of DI water, followed by staining with Coomassie brilliant blue. Western blot was then performed using the primary antibody specific for Nck or biotin and the secondary antibody.
Mass Spectrometric Analysis
The reaction mixture of Nck and p1 were digested with trypsin. Digested peptides were analyzed with an in-line EASY-spray source and nano-LC UltiMate 3000 high-performance liquid chromatography system (Thermo Fisher, USA) interfaced with an Elite mass spectrometer (Thermo Fisher, USA). The eluted peptides were detected by the Elite mass spectrometer, which was operated in data-dependent mode with one full MS scan at R = 60,000 (m/z = 200) mass, followed by MS/MS scans. Mass spectrometry raw data was searched by Maxquant.
Protein–Peptide Conjugation Reactions and the Binding Assay
The reaction solutions were then thermally denatured in the presence of loading dye to stop the reactions. […]

Nck in Caco-2 cells = experiment: In cell reaction of p1 with endogenous Nck (Western blot); assay type: cell-based; settings: L17E and p1 (printed 40 mM and 10 mM) overnight; anti-Nck Western blot
Protocol: Caco-2 cells were seeded in a 24-well plate at a density of 1×10^4 cells for 24 h and pretreated with peptide complexes for 2 h. After washing with DMEM, cells were infected with EPEC at selected MOI values for 3 h at 37 ℃. Cells were then treated with gentamicin ([…]) for 2 h and lysed with 1% Triton X-100 for 15 min. The lysates were diluted 100 or 1000 folds to be spread on LB agar plates […]
Immunofluorescence Confocal Microscopy
Infected cells were fixed with 4% PFA and treated with 0.1% Triton X-100 for 10 min. And then the samples were blocked with 3% BSA for 1 h, incubated with anti-Tir antibody (Abbexa, C ambridge, UK) at 1:200 at 4℃ over night and followed by incubation with Alexa Fluo 488 goat anti -rabbit IgG secondary antibody at room temperature for 2 h. Cells were treated with DAPI (Invitrogen) for 10 min, then stained with phalloidin (Alexa Fluor 594 -conjugated phalloidin, Invitrogen) for 1 h and imaged by a confocal fluorescent microscope (SP8, Leica).
Caco -2 cells were treated with peptides overnight and lysed via RIPA buffer containing protease inhibitors for 15 min at 4℃. […]
SPSS 23.0 statistical software was used to process experimental data. The differences between mean ± SEM of three independent experiments were assessed by Student's t -test. […]

Nck-SH2 = experiment: Competitive pull-down of Nck with biotinylated Y474; assay type: binding; settings: with or without p1
Protocol: (§1) In addition, we performed the reaction between p1 and Nck in a cell lysate, representing a complex solution. We incubated peptide p1 with the lysate of Caco-2 cells overexpressing Nck, and the reaction mixture was resolved on SDS-PAGE and analyzed with Western blotting against an anti-Nck antibody. […] Next, we incubated biotinylated peptide Y474 and Nck solutions with or without p1 peptide, and pulled down proteins that bound with biotinylated Y474.

Nck [2] = molecular target: T1, Nck; experiment: Reaction of peptides with Nck in Caco-2 cell lysate (Western blotting); assay type: binding; settings: lysate of Caco-2 cells (5 µg/µl) overexpressing Nck; peptide 10 µM, 37 °C, 60 min; anti-Nck Western blot
Protocol: as §1
Figure S7. Reaction of p1 in cell lysate. Biotinylated p1 peptide (10 µM) was incubated with the
lysate of Caco-2 cells (5 µg/µl)to react at 37 °C for 60 min before the mixture was resolved on SDS-
PAGE. Western blotting experiments using an anti-biotin antibody and an anti-Nck antibody, […]

Q: `CC[C@H](C)[C@H](NC(=O)[C@H](Cc1c[nH]cn1)NC(=O)[C@H](CCC(=O)O)NC(=O)[C@H](CCC(=O)O)NC(=O)CCCC[C@@H]1SC[C@@H]2NC(=O)N[C@@H]21)C(=O)N[C@@H](Cc1ccc(OP(=O)(O)O)cc1)C(=O)N[C@@H](CNC(=O)c1ccc(S(=O)(=O)F)cc1)C(=O)N[C@@H](CCC(=O)O)C(=O)N[C@H](C(=O)N[C@@H](C)C(=O)N[C@@H](C)C(=O)N[C@@H](CC(=O)O)C(N)=O)C(C)C` [p1] (Biotin-EEHI[pY][Dap](Benzoyl(4-SO2F))EVAAD-NH2; N-terminus and C-terminus assumed) was tested. Which “time to reach 50% reaction efficiency” value (Nck [1]) did it give?
A: 2 min

Q: And the “reaction with endogenous Nck in cytosol” value (Nck in Caco-2 cells)?
A: reacted with the endogenous Nck in the cytosol of Caco-2 cells

Q: And the “binding of Nck to biotinylated Y474 in pull-down” value (Nck-SH2)?
A: the Nck protein did not bind with Y474

Q: What about the “Nck band shift in cell lysate” value (Nck [2]) of the same compound?
A: complete band shift
